# Assay results: patent publication US10555950B2, “Bile acid recycling inhibitors for treatment of obesity and diabetes” (Satiogen Pharmaceuticals, Inc., priority 2008, dated 2020)
# “Also recorded” adds a separate entry of the source.
# Columns and labels:
# [1] = tested on: male db/db mice; assay: In vivo assay for reduction in blood glucose levels (Example 6, Compound 100A with or without sitagliptin); details: for reduction in plasma glucose from baseline: after 6 hours
# Protocol: FIG. 1 illustrates the change in plasma glucose level in diabetic db/db mice after oral administration of a combination of the ASBTI (−)-(3R,5R)-trans-3-butyl-3-ethyl-2,3,4,5-tetrahydro-7,8-dimethoxy-5-phenyl-1,4-benzothiazepine1,1-dioxide at doses of 0, 0.1, 1, 10 mg/kg and 30 mg/kg sitagliptin (DPP-IV inhibitor) and the ASBTI alone.
# FIG. 9 illustrates the change in body weight 24 h after administration of the ASBTI (−)-(3R,5R)-trans-3-butyl-3-ethyl-2,3,4,5-tetrahydro-7,8-dimethoxy-5-phenyl-1,4-benzothiazepine1,1-dioxide (100A) at doses of 0, 0.1, 1, 10 mg/kg in combination with 30 mg/kg sitagliptin (DPP-IV inhibitor) and the ASBTI alone.
# Male db/db mice 6-7 weeks (approx 30 g) were fasted for 2 h. A combination of (−)-(3R,5R)-trans-3-butyl-3-ethyl-2,3,4,5-tetrahydro-7,8-dimethoxy-5-phenyl-1,4-benzothiazepine 1,1-dioxide (Compound 100A) at doses of 0, 0.1, 1, 10, mg/kg in 10% of DMSO-water and 30 mg/kg sitagliptin (DPP-IV inhibitor) in a mixture of valine-pyrrolidine in water was administered orally to male db/db mice (n=7-10 per group). Blood sample (˜1 μl from tail for glucose level testing) was taken at t=−24 h, 0, 60, 180, 240, 300, 360 min and 24 h after administration.
# [2] = tested on: male db/db mice; assay: In vivo assay for reduction in blood glucose levels (Example 7, Compound 100B with or without sitagliptin); details: for reduction in plasma glucose from baseline: after 6 hours, oral
# Protocol: Male db/db mice 8-9 weeks (approx 40 g) were fasted for 2 h. A combination of 1-[4-[4-[(4R,5R)-3,3-dibutyl-7-(dimethylamino)-2,3,4,5-tetrahydro-4-hydroxy-1,1-dioxido-1-benzothiepin-5-yl]phenoxy]butyl]4-aza-1-azoniabicyclo[2.2.2]octane methane sulfonate (Compound 100B) at doses of 0, 3, 30, 100 mg/kg in saline-water and 30 mg/kg sitagliptin (DPP-IV inhibitor) in a mixture of valine-pyrrolidine in water was administered orally to male db/db mice (n=6-11 per group). Blood sample (˜1 μl from tail for glucose level testing) was taken at t=−24 h, 0, 1, 3, 4, 5, 6 h and 24 h after administration.
# [3] = tested on: diabetic db/db mice; assay: Plasma glucose in diabetic db/db mice after oral metformin plus sitagliptin (FIG. 3); type: in vivo; details: combination of metformin and sitagliptin
# Protocol: FIG. 3 illustrates the change in plasma glucose level in diabetic db/db mice after oral administration of a combination of metformin at doses of 0, 3, 30, 100, 300 mg/kg and 30 mg/kg sitagliptin (DPP-IV inhibitor).
# [4] = tested on: plasma GLP-1 level; assay: Plasma GLP-1 levels in normal rats after oral ASBTI or metformin with DPP-IV inhibitor (Example 8); type: in vivo; details: for plasma GLP-1 level, ASBTI in combination with sitagliptin: oral 3, 30, 100 mg/kg + 30 mg/kg sitagliptin; for plasma GLP-1 level, ASBTI in combination with sitagliptin / plasma GLP-1 level, ASBTI alone: 0-5 h; for plasma GLP-1 level, ASBTI alone: oral 3, 30, 100 mg/kg
# Protocol: 12-week-old male HSD rats were fasted for 16 h and given oral dose of 0, 3, 30, 100 mg/kg of the ASBTI 1-[4-[4-[(4R,5R)-3,3-dibutyl-7-(dimethylamino)-2,3,4,5-tetrahydro-4-hydroxy-1,1-dioxido-1-benzothiepin-5-yl]phenoxy]butyl]4-aza-1-azoniabicyclo[2.2.2]octane methane sulfonate (Synthesized by Nanosyn Inc., CA, USA) or metformin (Control, 0, 3, 30, 100, 300 mg/kg) in saline and a dose of 30 mg/kg sitaglipin in a mixture of valine-pyrrolidine in water (n=5 per group). Blood samples in volume of 0.6 ml for each time point were taken from the caudal vein with a heparinized capillary tube 0, 1, 3 and 5 h after the administration of compounds and plasma GLP-1 level were determined. Aprotinin and 10 μl of DPP-IV inhibitor per ml of blood were used for blood sample preservation during 10 min centrifugation and for storage at −70° C. or below. GLP-1 (Active pM) was tested by Millipore ELISA Kits (Millipore Corporation, 290 Concord Road, Billerica, Mass.).
# [5] = tested on: diabetic db/db mice; assay: Oral Compound 100A/100B plus sitagliptin versus subcutaneous exenatide, blood glucose at 3 hours (Example 9); type: in vivo; details: FIG. 10
# [6] = FIG. 6, 7, listed as 1-[4-[4-[(4R,5R)-3,3-dibutyl-7-(dimethylamino)-2,3,4,5-tetrahydro-4-hydroxy-1,1-
structure (smiles),measurement,setting,value
"N[C@@H](CC(=O)N1CCn2c(nnc2C(F)(F)F)C1)Cc1cc(F)c(F)cc1F [sitagliptin, (3R)-3-amino-1-[9-(trifluoromethyl)-1,4,7,8-tetrazabicyclo[4.3.0]nona-6,8-dien-4-yl]-4-(2,4,5-trifluorophenyl)butan-1-one, reference compound]",reduction in plasma glucose from baseline,"[1]; 0 mg/kg ASBTI + 30 mg/kg sitagliptin, oral",5.5%
same,reduction in plasma glucose from baseline,[2]; 0 mg/kg ASBTI + 30 mg/kg sitagliptin,5.5%
"CN(C)C(=N)N=C(N)N [metformin, reference compound]",duration of reduced plasma glucose concentrations,[3],about 6 hours
same,"plasma GLP-1 level, metformin in combination with sitagliptin","[4]; oral metformin 30, 100, 300 mg/kg + 30 mg/kg sitagliptin, FIG. 5",dose-dependent increase in plasma GLP-1 level; also recorded: elevation in GLP-1 levels in plasma
CCCC[C@]1(CC)CS(=O)(=O)c2cc(OC)c(OC)cc2[C@@H](c2ccccc2)N1,change in body weight,"[1]; 24 h after administration, 0.1-10 mg/kg with 30 mg/kg sitagliptin and ASBTI alone, FIG. 9",Weight loss
same,"plasma glucose concentrations, ASBTI alone","[1]; ASBTI alone, oral, FIG. 1",lowers plasma glucose concentrations
same,reduction in plasma glucose from baseline,"[1]; 01 mg/kg (so in the source) + 30 mg/kg sitagliptin, oral",5.6%
same,reduction in plasma glucose from baseline,"[1]; 1 mg/kg + 30 mg/kg sitagliptin, oral",15%
same,reduction in plasma glucose from baseline,"[1]; 10 mg/kg + 30 mg/kg sitagliptin, oral",42.3%
same,reduction of the elevated blood glucose levels,"[1]; single oral administration, 0.1-10 mg/kg in combination with 30 mg/kg sitagliptin, compared to sitagliptin alone or vehicle, FIG. 1",dose-dependent reduction of the elevated blood glucose levels
"CCCC[C@]1(CC)CS(=O)(=O)c2cc(OC)c(OC)cc2[C@@H](c2ccccc2)N1 (relative stereo) [Compound 100A, (−)-(3R,5R)-trans-3-butyl-3-ethyl-2,3,4,5-tetrahydro-7,8-dimethoxy-5-phenyl-1,4-benzothiazepine1,1-dioxide]",reduction of plasma glucose levels,"[5]; 3 hours post-dose, oral 10 mg/kg + 30 mg/kg sitagliptin",35%
"CCCCC1(CCCC)CS(=O)(=O)c2ccc(N(C)C)cc2[C@@H](c2ccc(OCCCC[N+]34CCN(CC3)CC4)cc2)[C@H]1O.CS(=O)(=O)[O-] [Compound 100B, 1-[4-[4-[(4R,5R)-3,3-dibutyl-7-(dimethylamino)-2,3,4,5-tetrahydro-4-hydroxy-1,1-dioxido-1-benzothiepin-5-yl]phenoxy]butyl]4-aza-1-azoniabicyclo[2.2.2]octane methane sulfonate salt]",blood glucose lowering compared with exenatide,"[5]; 3 hours after dosing, oral + 30 mg/kg sitagliptin versus single subcutaneous 0.02 mg/kg exenatide",reduces blood glucose levels more than a single subcutaneous injection of 0.02 mg/kg exenatide
same,change in body weight,"[2]; 24 h after administration, 3-100 mg/kg with 30 mg/kg sitagliptin, FIG. 8",Weight loss
same,"plasma glucose levels, ASBTI alone","[2]; ASBTI alone, 3, 30, 100 mg/kg oral, FIG. 4",lowers plasma glucose levels in dose dependent manner
same,reduction in plasma glucose from baseline,[2]; 3 mg/kg + 30 mg/kg sitagliptin,5.6%
same,reduction in plasma glucose from baseline,[2]; 30 mg/kg + 30 mg/kg sitagliptin,15%
same,reduction in plasma glucose from baseline,[2]; 100 mg/kg + 30 mg/kg sitagliptin,42.3%
same,reduction of the elevated blood glucose levels,"[2]; single oral administration, 3-100 mg/kg in combination with 30 mg/kg sitagliptin, compared to sitagliptin alone or vehicle, FIG. 2",dose-dependent reduction of the elevated blood glucose levels
same,"plasma GLP-1 level, ASBTI in combination with sitagliptin","[4]; FIG. 6, 7",dose-dependent increase in plasma GLP-1 level
same,"plasma GLP-1 level, ASBTI in combination with sitagliptin",[4]; [6],dose-dependent increase in plasma GLP-1 level; also recorded: elevation in GLP-1 levels in a dose-dependent manner
same,"plasma GLP-1 level, ASBTI alone","[4]; FIG. 6, 7",dose-dependent increase in plasma GLP-1 level
same,"plasma GLP-1 level, ASBTI alone",[4]; [6],dose-dependent increase in plasma GLP-1 level; also recorded: elevation in GLP-1 levels in a dose-dependent manner
